Assay results taken from ChEMBL document CHEMBL5096166, “Discovery of an Orally Efficacious Positive Allosteric Modulator of the Glucagon-like Peptide-1 Receptor” (J Med Chem, 2021).
Each block holds one compound with its values, some of them ahead of it. The source made the active and inactive calls. The rule behind the calls is not given here.

Legend:
Mus musculus [1] = assay: (§1) Anti-hyperglycemic activity in overnight-fasted GIPR KO C57BL/6 mouse assessed as reduction in blood glucose AUC at 10 mg/kg, po pretreated with compound for 30 mins followed by dextrose addition measured every 15 mins for 60 mins by oral glucose tolerance test relative to control; type: functional; parameters: scale not given: the % may be the effect or the level left; details: time 90 min, 1.5 h
[2] = target: T1, Glucagon-like peptide 1 receptor (Homo sapiens, UniProt P43220); assay: Positive allosteric modulator activity at human GLP-1R expressed in HEK293 cells assessed as potentiation of GLP-1(9-36) induced cAMP accumulation by measuring maximal efficacy in presence of IBMX relative to GLP-1(9-36); type: functional, cell-based; details: filed as positive allosteric modulator
T1 sequence (P43220 whole entry): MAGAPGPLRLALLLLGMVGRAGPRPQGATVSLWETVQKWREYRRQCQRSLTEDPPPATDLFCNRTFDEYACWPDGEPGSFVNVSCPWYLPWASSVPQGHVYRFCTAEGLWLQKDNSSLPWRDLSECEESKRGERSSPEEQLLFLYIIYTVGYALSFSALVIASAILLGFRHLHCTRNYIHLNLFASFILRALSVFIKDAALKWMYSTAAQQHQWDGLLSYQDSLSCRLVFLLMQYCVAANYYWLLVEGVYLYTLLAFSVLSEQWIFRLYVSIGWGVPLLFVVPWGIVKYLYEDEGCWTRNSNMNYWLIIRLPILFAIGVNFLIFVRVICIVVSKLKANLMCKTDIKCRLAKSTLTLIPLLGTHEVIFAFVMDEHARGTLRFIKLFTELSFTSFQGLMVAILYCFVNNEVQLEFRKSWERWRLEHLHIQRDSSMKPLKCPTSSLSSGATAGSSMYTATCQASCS

[3] = target: T1, Glucagon-like peptide 1 receptor; assay: Positive allosteric modulator activity at human GLP-1R expressed in HEK293 cells assessed as potentiation of EC20 GLP-1(9-36) induced cAMP accumulation in presence of IBMX relative to GLP-1(9-36); type: functional, cell-based
[4] = target: T1, Glucagon-like peptide 1 receptor; assay: Positive allosteric modulator activity at human GLP-1R expressed in HEK293 cells assessed as fold increase in potentiation of GLP-1(9-36) induced cAMP accumulation in presence of IBMX relative to GLP-1(9-36); type: functional, cell-based
[5] = target: T1, Glucagon-like peptide 1 receptor; assay: Positive allosteric modulator activity at human GLP-1R expressed in HEK293 cells assessed as potentiation of EC20 GLP-1(9-36) induced cAMP accumulation by measuring maximal efficacy in presence of IBMX relative to GLP-1(9-36); type: functional, cell-based; details: filed as positive allosteric modulator
Mus musculus [6] = assay: as §1, with “AUC at 30 mg/kg, po” for “AUC at 10 mg/kg, po”, “60 mins in presence of sitagliptin by oral” for “60 mins by oral”; type: functional; parameters: scale not given: the % may be the effect or the level left; details: time 90 min, 1.5 h
[7] = target: T1, Glucagon-like peptide 1 receptor; assay: Agonist activity at human GLP-1R expressed in HEK293 cells assessed as potentiation of GLP-1(7-36) induced cAMP accumulation; type: functional, cell-based
[8] = target: T1, Glucagon-like peptide 1 receptor; assay: Positive allosteric modulator activity at human GLP-1R transfected in rat INS-1 832/13 cells assessed as fold increase in potentiation of GLP-1(7-36) induced cAMP accumulation at 0.1 uM; type: functional, cell-based
[9] = Tmax in CD1 mouse at 3 mg/kg, po measured upto 16 hrs by LC-MS/MS analysis; type: ADME, organism-based; details: in vivo
[10] = target: T1, Glucagon-like peptide 1 receptor; assay: Partial agonist activity at human GLP-1R expressed in HEK293 cells assessed as potentiation of GLP-1(9-36) induced cAMP accumulation in presence of IBMX; type: functional, cell-based
[11] = Volume of distribution at steady state in Beagle dog at 1 mg/kg, iv measured upto 8 hrs by LC-MS/MS analysis; type: ADME, organism-based, Canis lupus familiaris; details: in vivo, read-out: Vdss
[12] = Clearance in Beagle dog at 1 mg/kg, iv measured upto 8 hrs by LC-MS/MS analysis; type: ADME, organism-based, Canis lupus familiaris; details: in vivo
[13] = target: T1, Glucagon-like peptide 1 receptor; assay: Agonist activity at human GLP-1R expressed in HEK293 cells assessed as potentiation of GLP-1(9-36) induced cAMP accumulation in presence of IBMX; type: functional, cell-based
[14] = target: T1, Glucagon-like peptide 1 receptor; assay: Agonist activity at human GLP-1R expressed in HEK293 cells assessed as potentiation of GLP-1(9-36) induced cAMP accumulation by measuring maximal efficacy at 0.12 uM in presence of IBMX relative to GLP-1(9-36); type: functional, cell-based; details: filed as agonist
[15] = target: T1, Glucagon-like peptide 1 receptor; assay: Positive allosteric modulator activity at human GLP-1R transfected in rat INS-1 832/13 cells assessed as potentiation of GLP-1(9-36) induced cAMP accumulation; type: functional, cell-based
[16] = target: T1, Glucagon-like peptide 1 receptor; assay: Agonist activity at human GLP-1R expressed in CHO-K1 cells assessed as potentiation of GLP-1(9-36) induced beta-arrestin recruitment; type: functional, cell-based
[17] = Cmax in Sprague-Dawley rat at 1 mg/kg, iv measured upto 8 hrs by LC-MS/MS analysis; type: ADME, organism-based; parameters: dose 1 mg/kg, time < 8 hrs, route iv; details: in vivo
[18] = AUC in Sprague-Dawley rat at 3 mg/kg, po measured upto 16 hrs by LC-MS/MS analysis; type: ADME, organism-based; parameters: dose 3 mg/kg, time < 16 hrs, route po; details: in vivo
[19] = AUC in CD1 mouse at 1 mg/kg, iv measured upto 8 hrs by LC-MS/MS analysis; type: ADME, organism-based; parameters: time < 8 hrs, dose 1 mg/kg, route iv; details: in vivo
[20] = Half life in CD1 mouse at 1 mg/kg, iv measured upto 8 hrs by LC-MS/MS analysis; type: ADME, organism-based; details: in vivo
[21] = target: T1, Glucagon-like peptide 1 receptor; assay: Agonist activity at human GLP-1R expressed in CHO-K1 cells assessed as fold increase in potentiation of EC50 GLP-1(7-36) induced beta-arrestin recruitment; type: functional, cell-based
[22] = AUC in Sprague-Dawley rat at 1 mg/kg, iv measured upto 8 hrs by LC-MS/MS analysis; type: ADME, organism-based; parameters: time < 8 hrs, dose 1 mg/kg, route iv; details: in vivo
Mus musculus [23] = assay: as §1, with “60 mins in presence of sitagliptin by oral” for “60 mins by oral”; type: functional; parameters: scale not given: the % may be the effect or the level left; details: time 90 min, 1.5 h
Mus musculus [24] = assay: Anti-hyperglycemic activity in overnight-fasted GIPR KO C57BL/6 mouse assessed as reduction in blood glucose AUC at 30 mg/kg, po pretreated with compound for 30 mins followed by dextrose addition measured every 15 mins for 60 mins by oral glucose tolerance test relative to control; type: functional; parameters: scale not given: the % may be the effect or the level left; details: time 90 min, 1.5 h
[25] = target: T1, Glucagon-like peptide 1 receptor; assay: Agonist activity at human GLP-1R expressed in CHO-K1 cells assessed as potentiation of GLP-1(9-36) induced beta-arrestin recruitment by measuring maximal efficacy relative to GLP-1(9-36); type: functional, cell-based
[26] = Cmax in CD1 mouse at 1 mg/kg, iv measured upto 8 hrs by LC-MS/MS analysis; type: ADME, organism-based; parameters: time < 8 hrs, dose 1 mg/kg, route iv; details: in vivo
[27] = AUC in Beagle dog at 1 mg/kg, iv measured upto 8 hrs by LC-MS/MS analysis; type: ADME, organism-based, Canis lupus familiaris; parameters: time < 8 hrs, dose 1 mg/kg, route iv; details: in vivo
[28] = Half life in CD1 mouse at 3 mg/kg, po measured upto 16 hrs by LC-MS/MS analysis; type: ADME, organism-based; details: in vivo
[29] = Half life in Sprague-Dawley rat at 1 mg/kg, iv measured upto 8 hrs by LC-MS/MS analysis; type: ADME, organism-based; details: in vivo
[30] = Half life in Beagle dog at 1 mg/kg, iv measured upto 8 hrs by LC-MS/MS analysis; type: ADME, organism-based, Canis lupus familiaris; details: in vivo
[31] = Oral bioavailability in Sprague-Dawley rat at 3 mg/kg measured upto 16 hrs by LC-MS/MS analysis; type: ADME, organism-based; details: in vivo
[32] = target: T1, Glucagon-like peptide 1 receptor; assay: Partial agonist activity at human GLP-1R expressed in HEK293 cells assessed as potentiation of GLP-1(9-36) induced cAMP accumulation by measuring maximal efficacy in presence of IBMX relative to GLP-1(9-36); type: functional, cell-based
[33] = Cmax in Sprague-Dawley rat at 3 mg/kg, po measured upto 16 hrs by LC-MS/MS analysis; type: ADME, organism-based; parameters: time < 16 hrs, dose 3 mg/kg, route po; details: in vivo
[34] = target: T1, Glucagon-like peptide 1 receptor; assay: Positive allosteric modulator activity at human GLP-1R transfected in rat INS-1 832/13 cells assessed as increase in GLP-1(9-36) induced insulin levels at 3 uM in presence of high glucose; type: cell-based; details: filed as positive allosteric modulator
[35] = Cmax in Beagle dog at 1 mg/kg, iv measured upto 8 hrs by LC-MS/MS analysis; type: ADME, organism-based, Canis lupus familiaris; parameters: time < 8 hrs, dose 1 mg/kg, route iv; details: in vivo
[36] = Clearance in CD1 mouse at 1 mg/kg, iv measured upto 8 hrs by LC-MS/MS analysis; type: ADME, organism-based; details: in vivo
[37] = Volume of distribution at steady state in CD1 mouse at 1 mg/kg, iv measured upto 8 hrs by LC-MS/MS analysis; type: ADME, organism-based; details: in vivo, read-out: Vdss
[38] = Tmax in Sprague-Dawley rat at 3 mg/kg, po measured upto 16 hrs by LC-MS/MS analysis; type: ADME, organism-based; details: in vivo
[39] = Cmax in CD1 mouse at 3 mg/kg, po measured upto 16 hrs by LC-MS/MS analysis; type: ADME, organism-based; parameters: dose 3 mg/kg, time < 16 hrs, route po; details: in vivo
[40] = Clearance in Sprague-Dawley rat at 1 mg/kg, iv measured upto 8 hrs by LC-MS/MS analysis; type: ADME, organism-based; details: in vivo
[41] = Half life in Sprague-Dawley rat at 3 mg/kg, po measured upto 16 hrs by LC-MS/MS analysis; type: ADME, organism-based; details: in vivo
[42] = AUC in CD1 mouse at 3 mg/kg, po measured upto 16 hrs by LC-MS/MS analysis; type: ADME, organism-based; parameters: dose 3 mg/kg, time < 16 hrs, route po; details: in vivo
[43] = Oral bioavailability in CD1 mouse at 3 mg/kg measured upto 16 hrs by LC-MS/MS analysis; type: ADME, organism-based; details: in vivo
[44] = target: T1, Glucagon-like peptide 1 receptor; assay: Positive allosteric modulator activity at human GLP-1R transfected in rat INS-1 832/13 cells assessed as potentiation of GLP-1(9-36) induced cAMP accumulation by measuring maximal efficacy at 3 uM relative to GLP-1(9-36); type: functional, cell-based; details: filed as positive allosteric modulator
[45] = Volume of distribution at steady state in Sprague-Dawley rat at 1 mg/kg, iv measured upto 8 hrs by LC-MS/MS analysis; type: ADME, organism-based; details: in vivo, read-out: Vdss

Compound: N[C@@H](CC(=O)N1CCn2c(nnc2C(F)(F)F)C1)Cc1cc(F)c(F)cc1F [SITAGLIPTIN]
Activity (Mus musculus [1]): 18%

Compound: COc1ccc(Cl)c([C@@H](C)n2cnc3ccc(Br)cc32)c1Cl
Emax [2]: 115%
EC50 [3]: 800 nM
fold change (FC) [4]: 250
Emax [5]: 102%

Compound: C[C@H](c1c(Cl)ccc(C2CC2)c1Cl)n1cnc2cnc(-c3ccccc3[C@@H](C)C(=O)O)cc21
Activity (Mus musculus [6]): 65%
EC50 [7]: 0.085 nM
fold change (FC) [8]: 2.7
Tmax [9]: 0.58 h
EC50 [10]: 1800 nM
Vd [11]: 0.3 L/kg
Emax [2]: 102%
clearance [12]: 1.11 L/h/kg
EC50 [13]: 7 nM
Emax [14]: 92%
EC50 [15]: 7 nM
EC50 [16]: 12 nM
Cmax [17]: 1.42 µM
AUC at 16 h [18]: 1160 nM·h
AUC at 8 h [19]: 3640 nM·h
half-life [20]: 2.1 h
fold change (FC) [21]: 1.9
EC50 [3]: 270 nM
AUC at 8 h [22]: 859 nM·h
Activity (Mus musculus [23]): 29%
Activity (Mus musculus [24]): 40%
Emax [25]: 10%
Cmax [26]: 1.43 µM
fold change (FC) [4]: 830
AUC at 8 h [27]: 1880 nM·h
half-life [28]: 1.6 h
half-life [29]: 0.6 h
half-life [30]: 0.6 h
bioavailability [31]: 45%
Emax [32]: 13%
Cmax [33]: 0.183 µM
Activity [34]: Active
Cmax [35]: 6.87 µM
clearance [36]: 0.54 L/h/kg
Activity (Mus musculus [1]): 9%
Vd [37]: 1.6 L/kg
Tmax [38]: 1.8 h
Cmax [39]: 2.04 µM
clearance [40]: 2.51 L/h/kg
half-life [41]: 2.9 h
AUC at 16 h [42]: 7300 nM·h
Emax [5]: 98%
bioavailability [43]: 67%
Emax [44]: 87%
Vd [45]: 1.6 L/kg

Compound: C[C@H](c1c(Cl)ccc(C2CC2)c1Cl)n1cnc2cnc(Br)cc21
Emax [2]: 110%
EC50 [3]: 1800 nM
fold change (FC) [4]: 300
Emax [5]: 113%

Further compounds by falling EC50 [3], results first:

Emax [2]: 88%
EC50 [3]: 24 nM
fold change (FC) [4]: 15000
Emax [5]: 120%
Compound: COc1ccc(Cl)c([C@@H](C)n2cnc3ccc(-c4ccccc4[C@H]4CCCCN4)cc32)c1Cl

Emax [2]: 103%
EC50 [3]: 14 nM
fold change (FC) [4]: 7300
Emax [5]: 104%
Compound: CC(C(=O)O)c1ccccc1-c1cc2c(cn1)ncn2[C@H](C)c1c(Cl)ccc(C2CC2)c1Cl (some centres not stated)
